Data on one molecule can be found in article PMC5708526, “Targeting secondary protein complexes in drug discovery: studying the druggability and chemical biology of the HSP70/BAG1 complex” (Chemical Communications (Cambridge, England), 2017).

One assay addresses T1, TR-HSC70 (aa 4-381) (Homo sapiens, UniProt P11142).
T1 construct: HSC70-NBD (residues 4 to 381); made in house
Nature of the assay: Fluorescence polarisation probe KD determination with truncated HSC70. Format: binding. Here is the method:
To determine the binding affinity of bisaryl FP-probe 11 for HSP72, increasing concentrations of the protein were titrated against a fixed concentration (10 nM) of the FP-probe. […] We speculated that this decrease in apparent KD was due to the slow hydrolysis of the ATP-probe to ADP-ATTO-488 + Pi. Although HSP72 has low intrinsic ATPase activity,[8] the high enzyme concentration could catalyse hydrolysis over the time-frame of the assay, with the initial KD values reflective of the known modest affinity of ATP for HSP70, whilst the final KD value was consistent with the higher affinity ADP ligand.[14] […]
TRIS Tris(hydroxymethyl)aminomethane
General Information: Unless otherwise stated the aqueous assay buffer contained 50 mM TRIS base pH 7.4, 150 mM NaCl, 6 mM MgCl2, 1 mM DTT, 0.1% (wt/wt) CHAPS. The assay was conducted using 384 Plus F ProxiPlates (PerkinElmer) with a final assay volume of 10 μL. Plates were centrifuged at 1000 rpm for 1 minute prior to incubation and read using an 2103 Envision Multilable Plate Reader. Excitation and emission wavelengths used for green probes were 480 nm and 535 nm, respectively.
Fluorescence polarisation was measured in units of millipolarization (mP). […] Data were plotted and analysed using GraphPad Prism 6, graphical data represents the mean ± standard error of the mean for a single representative experiment. […]

The next assay has as its target T2, HSP72/BAG1 complex (Homo sapiens, UniProt P0DMV8).
T2 construct: purchased Enzo Life Sciences (BAG-1M only)
Nature of the assay: FP probe KD determination with BAG1. Format: binding. Here is the method: To assess what effect the secondary HSP72/BAG1 complex had on the apparent affinity of the non-nucleotide bisaryl-ATTO-488 FP-probe 11, we carried out a similar BAG1 study. […] To confirm that the binding of BAG1 to HSP72 was not mutually exclusive, we screened the nucleotides ADP and ATP in a competition assay with bisaryl-ATTO-488 11 and HSP72 at a 50% bound fraction, with and without a saturating concentration of BAG1 (700 nM) (Fig. S7, ESI ^†). […]
mM TRIS base pH 7.4, 100 mM NaCl, 1 mM DTT, 1% (v/v) glycerol) or BAG1 replacement buffer (5 μL, 20 mM TRIS base pH 7.4, 100 mM NaCl, 1 mM DTT, 1% (v/v) glycerol) was added to the corresponding wells of the assay plate. Fluorescence polarisation values for probe and HSP72 ± BAG1 were plotted using GraphPad prism 6.
KD determination with BAG1: To each well, 5 μL containing probe molecule (20 nM in assay buffer) and BAG1 protein (1.4 μM in assay buffer) and increasing concentrations of HSP70 protein (5 μL, two-fold dilution series) were added. Fluorescence polarisation values for tracer control wells (10 nM probe in assay buffer only) were subtracted from each data point prior to data analysis. KD determination was performed using non-linear regression analysis (GraphPad Prism 6, one site–specific binding […]

“Also recorded” adds a separate entry of the source.

T2 sequence (P0DMV8 whole entry): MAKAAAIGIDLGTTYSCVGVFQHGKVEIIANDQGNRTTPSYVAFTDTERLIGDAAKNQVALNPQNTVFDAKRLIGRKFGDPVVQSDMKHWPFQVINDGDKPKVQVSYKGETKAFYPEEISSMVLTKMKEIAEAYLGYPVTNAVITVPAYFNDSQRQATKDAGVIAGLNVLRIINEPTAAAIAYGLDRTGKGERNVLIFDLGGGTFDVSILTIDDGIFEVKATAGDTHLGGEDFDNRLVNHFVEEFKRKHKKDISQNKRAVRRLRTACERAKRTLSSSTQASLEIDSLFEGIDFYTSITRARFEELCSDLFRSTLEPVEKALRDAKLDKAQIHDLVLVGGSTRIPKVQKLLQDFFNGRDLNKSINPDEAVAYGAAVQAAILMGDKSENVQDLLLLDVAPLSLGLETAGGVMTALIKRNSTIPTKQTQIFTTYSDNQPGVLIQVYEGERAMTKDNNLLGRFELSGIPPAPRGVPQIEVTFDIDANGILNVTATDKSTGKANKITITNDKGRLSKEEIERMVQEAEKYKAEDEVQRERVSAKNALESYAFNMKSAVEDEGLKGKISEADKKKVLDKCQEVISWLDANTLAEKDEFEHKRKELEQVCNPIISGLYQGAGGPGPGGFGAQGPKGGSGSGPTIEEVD
T2 sequence (Q99933 72-345 partner limits assumed): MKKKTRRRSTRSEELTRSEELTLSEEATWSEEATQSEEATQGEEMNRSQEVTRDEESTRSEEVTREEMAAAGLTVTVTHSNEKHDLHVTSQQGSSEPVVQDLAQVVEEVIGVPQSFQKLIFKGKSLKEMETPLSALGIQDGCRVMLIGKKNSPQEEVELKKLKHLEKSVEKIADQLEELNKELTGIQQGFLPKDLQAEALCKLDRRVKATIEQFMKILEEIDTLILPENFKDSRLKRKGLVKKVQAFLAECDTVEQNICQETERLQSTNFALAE
T1 sequence (P11142 4-381): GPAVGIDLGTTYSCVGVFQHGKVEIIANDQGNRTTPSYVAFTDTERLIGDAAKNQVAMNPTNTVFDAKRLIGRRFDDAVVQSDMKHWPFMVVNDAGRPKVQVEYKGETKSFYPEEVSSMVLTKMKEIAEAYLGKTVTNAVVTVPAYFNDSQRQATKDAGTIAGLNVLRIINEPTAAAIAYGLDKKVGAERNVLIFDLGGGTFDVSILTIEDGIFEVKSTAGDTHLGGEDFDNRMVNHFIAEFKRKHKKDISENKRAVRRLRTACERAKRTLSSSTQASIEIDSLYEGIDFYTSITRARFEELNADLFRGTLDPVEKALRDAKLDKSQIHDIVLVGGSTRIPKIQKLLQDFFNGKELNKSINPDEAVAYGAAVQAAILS

The Kd is the constant that tells how readily two partners part at equilibrium. As a reminder, the pKD is the negative decadic logarithm of the KD, by convention in mol/L. `CN(CCCC(=O)NCCCCCCNc1ncnc2c1nc(NCc1ccc3ncccc3c1)n2[C@@H]1O[C@H](COCc2ccc(C(F)(F)F)cc2)[C@@H](O)[C@H]1O)C(=O)c1ccccc1-c1c2ccc(=N)c(S(=O)(=O)O)c-2oc2c(S(=O)(=O)O)c(N)ccc12` [compound 11]: the dissociation constant (Kd) on TR-HSC70 (aa 4-381) (TR-HSC70) is 117 nM; on HSP72/BAG1 complex (700 nM BAG1) it was 141 nM. The pKD on TR-HSC70 (aa 4-381) (TR-HSC70, n = 2) worked out at 6.93. Also, the “effect of BAG1 on affinity of the probe for HSP72” value at HSP72/BAG1 complex (saturating BAG1 (700 nM)) is recorded as “maintained; also recorded: no significant change”.
